Assay results published in US20230173067A1 (Seagen Inc., priority 2020, published 2023).

How the values were obtained:
[1] = system: CTG-0138 esophageal cancer PDX model; assay: CTG-0138 HER2 positive esophageal cancer PDX model, tumor growth inhibition; format: in vivo, Mice
Protocol: (§1) The TGI index is calculated for a particular time point (e.g., a specific number of days into an experiment or clinical trial) according to the following formula: […]
(§2) where “Tx Day 0” denotes the first day that treatment is administered (i.e., the first day that an experimental therapy or a control therapy (e.g., vehicle only) is administered) and “Tx Day X” denotes X number of days after Day 0. […] As a non-limiting example, in an experiment where study day 0 corresponds to “Tx Day 0” and the TGI index is calculated on study day 28 (i.e., “Tx Day 28”), if the mean tumor volume in both groups on study day 0 is 250 mm^3 and the mean tumor volumes in the experimental and control groups are 125 mm^3 and 750 mm^3, respectively, then the TGI index on day 28 is 125%.
(§3) Tucatinib was administered orally at a dose of 50 mg/kg twice per day for 28 days (study days 0-27). […] A vehicle-only group was included as a negative control.

[2] = system: Calu-3 NSCLC xenograft model; assay: Calu-3 HER2 positive NSCLC xenograft model, tumor growth inhibition; format: in vivo, Mice
Protocol: as §1, §2
(§4) For the Calu-3 study, tucatinib was administered orally at a dose of 50 mg/kg twice per day for 21 days, beginning on study day 7. […] A vehicle-only group was included as a negative control.

[3] = system: NCI-H2170 cells; assay: Response of NCI-H2170 cells to tucatinib in vitro; format: cell-based; details: previously demonstrated
[4] = system: NCI-H2170 NSCLC xenograft model; assay: NCI-H2170 HER2 positive NSCLC xenograft model, tumor growth inhibition; format: in vivo, Mice
Protocol: as §1, §2, §4
For the NCI-H2170 study, tucatinib was administered orally at a dose of 50 mg/kg twice per day for 21 days, beginning on study day 18. […] A vehicle-only group was included as a negative control.

[5] = system: CTG-0121 CRC PDX model; assay: CTG-0121 HER2 positive CRC PDX model, tumor growth inhibition; format: in vivo, Mice
Protocol: as §1, §2, §3

[6] = system: CTG-0383 CRC PDX model; assay: CTG-0383 HER2 positive CRC PDX model, tumor growth inhibition; format: in vivo, Mice
Protocol: as §1, §2, §3

[7] = system: CTG-0927 HER2 positive cholangiocarcinoma PDX model; assay: CTG-0927 HER2 positive cholangiocarcinoma PDX model, tumor growth inhibition; format: in vivo, Mice; details: CTG-0927 cholangiocarcinoma PDX model
Protocol: as §1, §2, §3

[8] = system: GXA 3054 gastric cancer PDX model; assay: GXA 3054 HER2 positive gastric cancer PDX model, tumor growth inhibition; format: in vivo, Mice
Protocol: as §1, §2, §3

[9] = system: CTG-0137 esophageal cancer PDX model; assay: CTG-0137 HER2 positive esophageal cancer PDX model, tumor growth inhibition; format: in vivo, Mice
Protocol: as §1, §2, §3

[10] = system: CTG-0784 CRC PDX model; assay: CTG-0784 HER2 positive CRC PDX model, tumor growth inhibition; format: in vivo, Mice
Protocol: as §1, §2, §3

[11] = system: GXA 3038 gastric cancer PDX model; assay: GXA 3038 HER2 positive gastric cancer PDX model, tumor growth inhibition; format: in vivo, Mice
Protocol: as §1, §2, §3

[12] = system: GXA 3039 gastric cancer PDX model; assay: GXA 3039 HER2 positive gastric cancer PDX model, tumor growth inhibition; format: in vivo, Mice
Protocol: as §1, §2, §3

[13] = system: Calu-3 cells; assay: Response of Calu-3 cells to tucatinib in vitro; format: cell-based; details: previously demonstrated

Structure (SMILES): Cc1cc(Nc2ncnc3ccc(NC4=NC(C)(C)CO4)cc23)ccc1Oc1ccn2ncnc2c1 [Tucatinib, tucatinib]
- effect on tumor growth (in words) [1]: inhibited tumor growth
- effect on tumor growth (in words) [2]: inhibited tumor growth
- response to tucatinib in vitro [3]: good responses
- effect on tumor growth (in words) [4]: inhibited tumor growth
- effect on tumor growth (in words) [5]: inhibited tumor growth
- effect on tumor growth (in words) [6]: inhibited tumor growth
- effect on tumor growth (in words) [7]: inhibited tumor growth
- effect on tumor growth (in words) [8]: inhibited tumor growth
- effect on tumor growth (in words) [9]: inhibited tumor growth
- effect on tumor growth (in words) [10]: inhibited tumor growth
- effect on tumor growth (in words) [11]: inhibited tumor growth
- effect on tumor growth (in words) [12]: inhibited tumor growth
- response to tucatinib in vitro [13]: good responses
